One molecule from PMC7156724, “Potent BRD4 inhibitor suppresses cancer cell-macrophage interaction” (Nature Communications, 2020) can be followed below.

Values joined by “and” are separate entries in the source; they are usually repeats but may differ in a detail not shown here. Identical values can stand only once.

In data set [1] the test system is CSF1 mRNA. The data set can be described thus: RT-qPCR of CSF1 mRNA in human ovarian cancer and melanoma cells. To be noted: 50 nM, 48 h. It counts as cell-based.
In data set [2] the test system is HIF1 reporter activity. The data set can be described thus: HIF1 luciferase reporter assay. It counts as cell-based, human. More on the design: key to HIF1 luciferase reporter activity, relative (Fig.7e): firefly/Renilla luciferase activity ratio, relative to control. How it is done: Fig. 7 NHWD-870 inhibited CSF1 expression through suppressing BRD4 and HIF1α in tumor cells. a, b Representative western blot analysis of control (Ctrl) and BRD4 knockout (KO) A375 and A2780 cells exposed to 20% or 1% O2 for 24 hours. Selected from three independent experiments. c, d Representative western blot analysis of A375 and A2780 cells treated with DMSO or 25 nM NHWD-870 and exposed to 20% or 1% O2 for 24 h. Selected from three independent experiments. e Relative HIF1 luciferase reporter activity in control (Ctrl), BRD4 knockout (KO), or NHWD-870 treated A375 and A2780 cells exposed to 20% or 1% O2 for 24 h. Data are presented as mean ± SEM from three independent experiments. f RT-qPCR analyses of CSF1 in control (Ctrl), BRD4 knockout (KO), or NHWD-870 treated A375 and A2780 cells exposed to 20% or 1% O2 for 24 hours. Data are presented as mean ± SEM from three independent experiments. g RT-qPCR analyses of HIF1A in A375 or A2780 cells treated with 15 nM NHWD-870 or DMSO control for 24 h. Data are presented as mean ± SEM from three independent experiments. h Genome browser view of BRD4 ChIP-seq peaks on the HIF1A promoter. Shown are BRD4 ChIP and input control of A375 cells (top panel) and BRD4 ChIP of MDA-MB231 cells treated with DMSO or JQ-1 (bottom panel). i BRD4 ChIP-qPCR analyses of the HIF1A promoter in A2780 cells treated with DMSO or NHWD-870 for 72 h. Data are presented as mean ± SEM from three independent experiments. j RT-qPCR analyses of CSF1 in A375 and A2780 cells were transiently transduced with HIF1α, then exposed to 1% O2 for 24 h. Ctrl, Control. Data are presented as mean ± SEM from three independent experiments. k A model showing the effects of NHWD-870 on cancer cell-TAM interaction. NHWD-870 inhibits the proliferation and survival of TAMs partly by inhibiting BRD4 activity, HIF1α expression, and CSF1 secretion by tumor cells, and downregulating CSF1R mediated ERK and PI3K/AKT signaling in TAMs. p values were calculated using two-tailed, unpaired t tests in this figure. *p < 0.05; **p < 0.01; ***p < 0.001. Source data are provided as a Source Data file.
Supplementary Figure 15. […]
Data in (a) and (c-e) are presented as mean ± SEM from 3 independent experiments. p values were calculated using two-tailed, unpaired t tests. **, p<0.01; ***, p<0.001. Source data are provided as a Source […]
All patients had […]
undergone complete cytoreductive surgery.
14. Immunohistochemical staining. Paraffin-embedded implantation samples isolated from peritoneal metastasis of EOC patients (128 cases) were sectioned at a thickness of 4μm. To stain CD68, CSF1 and p-BRD4, the slides were first deparaffinized in xylene and rehydrated with gradient concentrations of alcohol under standard procedures. After rehydration, the slides were immersed in 0.01 mol/L citrate buffer (pH 6.0) and heated (95°C) for 15 min for antigen retrieval.
Then, the samples were incubated with 3% hydrogen peroxide (H2O2) for 10 minutes followed by 10% normal goat serum blocking for 10 minutes. Subsequently, the sections were incubated with rabbit polyclonal anti-human CD68 antibody (dilution 1:100) (sc-20060, Santa Cruz Biotechnology) and anti-human p-BRD4

Data set [3] can be described thus: Metabolic stability assay, monkey liver microsomes. The settings on record: for Remaining in Monkey liver microsomes (Sup Fig.6d): in % (unit assumed). Here is the method:
7. Metabolic stability assay. The metabolic profile of NHWD-870 was determined using mouse, rat, dog, monkey, and human liver microsomes using the protocols […]
No. Compound ID Exat Mass Stock Conc.
1) 100 mM potassium phosphate buffer, PH7.4; 2) 10mM MgCI2
1) Intermediate solution: Dilute 5 μL of compound or control from stock solution (10 mM) with 45 uL DMSO,then mixed with 450 μL 1:1 Methanol/Water (Conc.: 10 0 […]
2) Working solution: Dilute 50 μL from intermediate solution with 450 μL 100 mM potassium phosphate buffer (Conc.: 10 μM, 4.5%MeOH)
(3) NADPH regenerating system (final Isocitric dehydrogenase conc.= 1 unit/mL at […]
1) β-Nicotinamide adenine dinucleotide phosphate, Vendor: sigma Cat. No. N0505
2) Isocitric acid, Vendor: Sigma Cat. No. I1252
3) Isocitric dehydrogenase, Vendor: sigma Cat. No. I2002
(4) Liver microsome solution preparation (final concentration o f 0.5 mg protein/mL) […]
Cold ACN including 100 ng/mL Tolbutamide and 100 ng/mL Labetalol as internal […]
1) Add 10 μL compound or control working solution/well to all plates (T0, T5, T10, T20, T30, T60, NCF60) except matrix blank.
2) Dispense 680 μL/well microsome solution to 96-well plate as reserv oir according to […]
plate map. Then add 80 μL/well to every plate by Apricot, incubate the mixture of microsome solution and compound at 37℃ for about 10 min.
3) Add 10 μL 100 mM potassium phosphate buffer/well to NCF60, incubate at 37℃, […]
4) After pre-warming, dispense 90 μL/well NADPH regenerating system to 96-well plate as reservoir according to the plate map. Then add 10 μL/well to every plate by Apricot to start reaction.
5) Incubate at 37℃, start timer 2.
6) Add 300 (μL/well) stop solution (cold in 4℃, including 100 ng/mL Tolbutamide and 100 ng/mL Labetalol) to terminate the reaction.
7) The sampling plates are shaked for approx 10 min.
8) Samples are centrifuged at 4000 rpm for 20 min under 4℃.
9) While centrifuging, load 8×new 96-well plate with 300 μL HPLC water, then transfer 100 μL supernatant, mixed for LC/MS/MS.
Use equation of first order kinetics to calculate t1/2 and Clin t(mic): […]
Equation of first order kinetics: […]

Setting [4] is: monkey, liver microsomes, pH 7.4.

Regarding `Cc1nnn(C)c1-c1cnc2c3c4cnn(C)c4ccc3n([C@H](c3ccccc3)C3CCOCC3)c2c1` [NHWD-870], the “relative CSF1 mRNA level” value in data set [1] (2780 (A2780)) is 0.0041 and 0.006 and 0.005; in data set [1] (YUAME), 0.0004 and 0.0005 and 0.0003. In addition, the “HIF1 luciferase reporter activity, relative (Fig.7e)” value in data set [2] (A375, 1% O2) was 3.6595 and 5.4118 and 3.2149; in data set [2] (A375, 20% O2), 0.7214 and 0.5505 and 0.6045; in data set [2] (A2780, 1% O2) it was 1.7045 and 2.3901 and 2.1842; in data set [2] (A2780, 20% O2), 0.5644 and 0.5674 and 0.4042. Also, the HIF1 reporter activity entry in data set [2] (A2780 and A375 cells, 20% or 1% O2, 24 h) is reported as “significantly decreased HIF1 reporter activity”. In addition, the “Remaining (T=60min)” value in data set [3] (monkey liver microsomes) came out at 25.7%. Besides, the “Remaining (*NCF=60min)” value in data set [3] (monkey liver microsomes, no cofactor) came to 112.0%. In data set [3] (setting [4]), the CLint scaled at 1 µM was 62.4 mL/min/kg. The molecule further registered a half-life at 1 µM in data set [3] (setting [4]) of 30 min. Further, the microsomal CLint at 1 µM in data set [3] (monkey, microsomes, pH 7.4) stood at 46.2 µL/min/mg. Also, the “Remaining in Monkey liver microsomes (Sup Fig.6d)” value is reported as 100 in data set [3] (time 0); 73.787 in data set [3] (time 5); 48.901 in data set [3] (time 10); 36.72 in data set [3] (time 20); 26.708 in data set [3] (time 30); 12.364 in data set [3] (time 60).
